In US20230024302A1, “2,3,5-TRISUBSTITUTED PYRAZOLO[1,5-A]PYRIMIDINE COMPOUNDS” (Arcus Biosciences, Inc., priority 2019, published 2023):

Assays:
PI3Kγ (p120γ) = target: T1, PI3Kγ (p120γ) (Homo sapiens, UniProt P48736); experiment: Inhibition of PI3K kinase activity (ADP Glo), PI3Kγ; conditions: Table 2, p120γ, read-out: biochemical potency (PI3Kγ IC50)
T1 construct: purchased Promega V1761
Outline: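 IC50 values come from a 4-parameter nonlinear fit of ADP-Glo luminescence, which measures ADP produced as PIP2 is phosphorylated to PIP3. The p120γ enzyme (2× stock 8 nM) sat with compound 1 h at rt before substrate (2× stocks: 50 μM ATP, 0.1 mg/ml PIP2) was added. Phosphorylation then proceeded 60 min at rt.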

PI3Kγ = target: T2, PI3Kγ (Homo sapiens, UniProt P48736); experiment: PI3Kγ cellular assay in THP-1 cells (AKT pS473 AlphaLISA); format: cell-based; conditions: Table 2, rhMCP-1 stimulated AKT pS473, read-out: cellular potency (PI3Kγ IC50)
T2 construct: host or cells: THP-1
T2 sequence (P48736 whole entry): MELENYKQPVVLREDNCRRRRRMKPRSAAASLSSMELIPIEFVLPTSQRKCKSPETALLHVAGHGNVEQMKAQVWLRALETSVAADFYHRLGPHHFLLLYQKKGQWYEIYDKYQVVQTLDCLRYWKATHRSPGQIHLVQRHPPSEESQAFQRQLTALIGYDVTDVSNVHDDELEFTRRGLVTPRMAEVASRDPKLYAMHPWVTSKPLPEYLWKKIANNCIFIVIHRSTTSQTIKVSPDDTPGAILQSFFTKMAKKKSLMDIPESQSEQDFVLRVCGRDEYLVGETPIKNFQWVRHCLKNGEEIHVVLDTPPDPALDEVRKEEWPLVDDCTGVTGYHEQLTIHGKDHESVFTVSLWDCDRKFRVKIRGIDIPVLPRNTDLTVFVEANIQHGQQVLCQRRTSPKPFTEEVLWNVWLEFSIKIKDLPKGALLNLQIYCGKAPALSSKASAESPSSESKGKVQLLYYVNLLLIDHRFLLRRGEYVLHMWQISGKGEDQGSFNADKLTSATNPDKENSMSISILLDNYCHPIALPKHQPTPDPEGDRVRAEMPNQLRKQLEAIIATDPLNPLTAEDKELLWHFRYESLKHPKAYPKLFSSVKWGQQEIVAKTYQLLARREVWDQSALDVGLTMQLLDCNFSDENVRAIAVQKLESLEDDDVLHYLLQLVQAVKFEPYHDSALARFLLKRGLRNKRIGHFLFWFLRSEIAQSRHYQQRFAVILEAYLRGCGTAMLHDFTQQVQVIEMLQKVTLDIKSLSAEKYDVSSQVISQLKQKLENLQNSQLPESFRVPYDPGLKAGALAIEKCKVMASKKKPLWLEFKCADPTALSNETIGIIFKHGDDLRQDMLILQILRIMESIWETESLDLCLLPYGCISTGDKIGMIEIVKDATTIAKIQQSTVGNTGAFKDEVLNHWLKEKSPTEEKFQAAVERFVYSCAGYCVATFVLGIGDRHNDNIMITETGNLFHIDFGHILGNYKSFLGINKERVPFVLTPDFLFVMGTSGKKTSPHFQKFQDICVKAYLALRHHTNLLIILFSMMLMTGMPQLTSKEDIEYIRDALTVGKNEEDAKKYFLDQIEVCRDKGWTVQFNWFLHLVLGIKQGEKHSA
Outline: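 Endogenous AKT S473 phosphorylation, detected by AlphaLISA in lysates, serves as the PI3Kγ activity read-out in stimulated, serum-starved THP-1 cells (1.8×10^5/well).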

T1 sequence (P48736 whole entry): as above

| SMILES | IC50 (PI3Kγ (p120γ)) | IC50 (PI3Kγ) |
| --- | --- | --- |
| Cc1cc(-c2ccn3nc(N)c(C(=O)N[C@H](C)CN)c3n2)cc2c1C(=O)N([C@@H](C)C1CC1)C2 [Example 230] | < 0.1 µM | 0.1 to 1 µM |
| Cc1cc(-c2ccn3nc(N)c(C(=O)N[C@@H]4CCCNC4)c3n2)cc2c1C(=O)N([C@@H](C)C1CC1)C2 [Example 231] | < 0.1 µM | 0.1 to 1 µM |
| Cc1cc(-c2ccn3nc(N)c(C(=O)N[C@H]4CCNC4)c3n2)cc2c1C(=O)N([C@@H](C)C1CC1)C2 [Example 232] | < 0.1 µM | 0.1 to 1 µM |
| CCNC(=O)c1c(N)nn2ccc(-c3cc(C)c4c(c3)CN([C@@H](C)C3CC3)C4=O)nc12 [Example 233] | < 0.1 µM | 0.1 to 1 µM |
| Cc1cc(-c2ccn3nc(N)c(C(=O)NC[C@H](C)O)c3n2)cc2c1C(=O)N([C@@H](C)C1CC1)C2 [Example 234] | < 0.1 µM | 0.1 to 1 µM |
| Cc1cc(-c2ccn3nc(N)c(C(=O)N[C@@H](C)c4cnn(C)c4)c3n2)cc2c1C(=O)N([C@@H](C)C1CC1)C2 [Example 235] | < 0.1 µM | 0.1 to 1 µM |
| Cc1cc(-c2ccn3nc(N)c(C(=O)NCC(N)=O)c3n2)cc2c1C(=O)N([C@@H](C)C1CC1)C2 [Example 236] | < 0.1 µM | 0.1 to 1 µM |
| Cc1cc(-c2ccn3nc(N)c(C(=O)N[C@@H](CO)C(C)(C)C)c3n2)cc2c1C(=O)N([C@@H](C)C1CC1)C2 [Example 237] | < 0.1 µM | 0.1 to 1 µM |
| Cc1cc(-c2ccn3nc(N)c(C(=O)NC[C@@H]4CCOC4)c3n2)cc2c1C(=O)N([C@@H](C)C1CC1)C2 [Example 238] | < 0.1 µM | 0.1 to 1 µM |
| Cc1cc(-c2ccn3nc(N)c(C(=O)N[C@H]4CC[C@@H](O)C4)c3n2)cc2c1C(=O)N([C@@H](C)C1CC1)C2 [Example 239] | < 0.1 µM | 0.1 to 1 µM |
| Cc1cc(-c2ccn3nc(N)c(C(=O)N[C@@H]4c5ccccc5C[C@@H]4O)c3n2)cc2c1C(=O)N([C@@H](C)C1CC1)C2 [Example 240] | < 0.1 µM | 0.1 to 1 µM |
| Cc1cc(-c2ccn3nc(N)c(C(=O)NC4CS(=O)(=O)C4)c3n2)cc2c1C(=O)N([C@@H](C)C1CC1)C2 [Example 241] | < 0.1 µM | 0.1 to 1 µM |
| Cc1cc(-c2ccn3nc(N)c(C(=O)NC4(C)CC4)c3n2)cc2c1C(=O)N([C@@H](C)C1CC1)C2 [Example 242] | < 0.1 µM | 0.1 to 1 µM |
| Cc1cc(-c2ccn3nc(N)c(C(=O)N[C@H]4CCCNC4)c3n2)cc2c1C(=O)N([C@@H](C)C1CC1)C2 [Example 243] | < 0.1 µM | 0.1 to 1 µM |
| Cc1cc(-c2ccn3nc(N)c(C(=O)N[C@H]4CCC[C@H](O)C4)c3n2)cc2c1C(=O)N([C@@H](C)C1CC1)C2 [Example 244] | < 0.1 µM | 0.1 to 1 µM |
| Cc1cc(-c2ccn3nc(N)c(C(=O)N[C@@H](C(N)=O)c4ccccc4)c3n2)cc2c1C(=O)N([C@@H](C)C1CC1)C2 [Example 245] | < 0.1 µM | 0.1 to 1 µM |
| Cc1cc(-c2ccn3nc(N)c(C(=O)NC4(CO)CC4)c3n2)cc2c1C(=O)N([C@@H](C)C1CC1)C2 [Example 246] | < 0.1 µM | 0.1 to 1 µM |
| Cc1cc(-c2ccn3nc(N)c(C(=O)NC4(C(N)=O)CC4)c3n2)cc2c1C(=O)N([C@@H](C)C1CC1)C2 [Example 247] | < 0.1 µM | 0.1 to 1 µM |
| Cc1cc(-c2ccn3nc(N)c(C(=O)NC(C)(C)c4ccncc4)c3n2)cc2c1C(=O)N([C@@H](C)C1CC1)C2 [Example 248] | < 0.1 µM | 0.1 to 1 µM |
| Cc1cc(-c2ccn3nc(N)c(C(=O)NC4CC4(C)C)c3n2)cc2c1C(=O)N([C@@H](C)C1CC1)C2 (stereo partly shown) [Example 249] | < 0.1 µM | 0.1 to 1 µM |
| Cc1cc(-c2ccn3nc(N)c(C(=O)NCC4(CO)CC4)c3n2)cc2c1C(=O)N([C@@H](C)C1CC1)C2 [Example 250] | < 0.1 µM | 0.1 to 1 µM |

More lines, now with the values ahead:

| IC50 (PI3Kγ (p120γ)) | IC50 (PI3Kγ) | SMILES |
| --- | --- | --- |
| < 0.1 µM | 0.1 to 1 µM | Cc1cc(-c2ccn3nc(N)c(C(=O)N4CC(O)C4)c3n2)cc2c1C(=O)N(C(C)C1CC1)C2 (stereo not shown) [Example 251] |
| < 0.1 µM | 0.1 to 1 µM | Cc1cc(-c2ccn3nc(N)c(C(=O)NC(C)C)c3n2)cc2c1C(=O)N([C@@H](C)C1CC1)C2 [Example 252] |
| < 0.1 µM | 0.1 to 1 µM | Cc1cc(-c2ccn3nc(N)c(C(=O)NC4(C(C)O)CC4)c3n2)cc2c1C(=O)N([C@@H](C)C1CC1)C2 (stereo partly shown) [Example 253] |
| < 0.1 µM | 0.1 to 1 µM | Cc1cc(-c2ccn3nc(N)c(C(=O)N[C@H]4CCCC[C@@H]4O)c3n2)cc2c1C(=O)N([C@@H](C)C1CC1)C2 [Example 254] |
| < 0.1 µM | 0.1 to 1 µM | Cc1cc(-c2ccn3nc(N)c(C(=O)NC4(C#N)CCC4)c3n2)cc2c1C(=O)N([C@@H](C)C1CC1)C2 [Example 255] |
| < 0.1 µM | 0.1 to 1 µM | Cc1cc(-c2ccn3nc(N)c(C(=O)NCC4(C#N)CC4)c3n2)cc2c1C(=O)N([C@@H](C)C1CC1)C2 [Example 256] |
| < 0.1 µM | 0.1 to 1 µM | Cc1cc(-c2ccn3nc(N)c(C(=O)NC[C@H]4CCOC4)c3n2)cc2c1C(=O)N([C@@H](C)C1CC1)C2 [Example 257] |
| < 0.1 µM | 0.1 to 1 µM | Cc1cc(-c2ccn3nc(N)c(C(=O)NC4CC(F)(F)C4)c3n2)cc2c1C(=O)N([C@@H](C)C1CC1)C2 [Example 258] |
| < 0.1 µM | 0.1 to 1 µM | Cc1cc(-c2ccn3nc(N)c(C(=O)NC4COCc5ccccc54)c3n2)cc2c1C(=O)N([C@@H](C)C1CC1)C2 (stereo partly shown) [Example 259] |
| < 0.1 µM | 0.1 to 1 µM | Cc1cc(-c2ccn3nc(N)c(C(=O)NCCC#N)c3n2)cc2c1C(=O)N([C@@H](C)C1CC1)C2 [Example 260] |
| < 0.1 µM | 0.1 to 1 µM | Cc1cc(-c2ccn3nc(N)c(C(=O)N[C@H]4CCOc5ccccc54)c3n2)cc2c1C(=O)N([C@@H](C)C1CC1)C2 [Example 261] |
| < 0.1 µM | 0.1 to 1 µM | Cc1cc(-c2ccn3nc(N)c(C(=O)NC4(C(F)(F)F)CC4)c3n2)cc2c1C(=O)N([C@@H](C)C1CC1)C2 [Example 262] |
| < 0.1 µM | 0.1 to 1 µM | Cc1cc(-c2ccn3nc(N)c(C(=O)N[C@@H]4C[C@@H]4F)c3n2)cc2c1C(=O)N([C@@H](C)C1CC1)C2 [Example 263] |
| < 0.1 µM | 0.1 to 1 µM | Cc1cc(-c2ccn3nc(N)c(C(=O)N[C@H]4CCC[C@H]4O)c3n2)cc2c1C(=O)N([C@@H](C)C1CC1)C2 [Example 264] |
| < 0.1 µM | > 1 µM | Cc1cc(-c2ccn3nc(N)c(C(=O)N[C@H]4Cc5ccccc5[C@@H]4O)c3n2)cc2c1C(=O)N([C@@H](C)C1CC1)C2 [Example 265] |
| < 0.1 µM | > 1 µM | Cc1cc(-c2ccn3nc(N)c(C(=O)NC4CNC4)c3n2)cc2c1C(=O)N([C@@H](C)C1CC1)C2 [Example 266] |
| < 0.1 µM | 0.1 to 1 µM | Cc1cc(-c2ccn3nc(N)c(C(=O)N[C@@H](CO)CC(C)C)c3n2)cc2c1C(=O)N([C@@H](C)C1CC1)C2 [Example 267] |
| < 0.1 µM | 0.1 to 1 µM | Cc1cc(-c2ccn3nc(N)c(C(=O)NC4(C#N)CC4)c3n2)cc2c1C(=O)N([C@@H](C)C1CC1)C2 [Example 268] |
| < 0.1 µM | 0.1 to 1 µM | Cc1cc(-c2ccn3nc(N)c(C(=O)NC[C@H]4CCCO4)c3n2)cc2c1C(=O)N([C@@H](C)C1CC1)C2 [Example 269] |
| < 0.1 µM | 0.1 to 1 µM | Cc1cc(-c2ccn3nc(N)c(C(=O)N4CC(C(C)(C)O)C4)c3n2)cc2c1C(=O)N(C(C)C1CC1)C2 (stereo not shown) [Example 270] |
